Results taken from patent US20060287320A1, “Preparation of thioarabinofuranosyl compounds and use thereof” (Southern Research Institute, priority 1998, published 2006).

Tests used:
DLD-1 Colon = experiment: In vitro IC50, 72 hour exposure, Natural Red assay; assay type: cell-based; conditions: read-out: IC50 Molar Values
Experimental: (§1) EXAMPLE 3 The following in vitro tests were carried out.
(§2) The above tests were carried out with a 72 hour exposure to the compound using Natural Red assay for all cell lines except SK-MEL 28 which was done with SRB assay.

PC-3 Prostate = experiment: In vitro IC50, 72 hour exposure, Natural Red assay; assay type: cell-based; conditions: read-out: IC50 Molar Values
Experimental: as §1, §2

ZR-75-1 Mammary = experiment: In vitro IC50, 72 hour exposure, Natural Red assay; assay type: cell-based; conditions: read-out: IC50 Molar Values
Experimental: as §1, §2

LOX IMV1 Melanoma = experiment: In vitro IC50, 72 hour exposure, Natural Red assay; assay type: cell-based; conditions: read-out: IC50 Molar Values
Experimental: as §1, §2

NC1-H23 Lung = experiment: In vitro IC50, 72 hour exposure, Natural Red assay; assay type: cell-based; conditions: read-out: IC50 Molar Values
Experimental: as §1, §2

SNB-7 (CNS) = experiment: In vitro IC50, 72 hour exposure, Natural Red assay; assay type: cell-based; conditions: read-out: IC50 Molar Values
Experimental: as §1, §2

CAK1-1 Renal = experiment: In vitro IC50, 72 hour exposure, Natural Red assay; assay type: cell-based; conditions: read-out: IC50 Molar Values
Experimental: as §1, §2

[1] = system: DNA synthesis in CEM cells; experiment: Effect on DNA synthesis ([3H]dThd incorporation) in CEM cells; assay type: cell-based; conditions: 150 nM, average of two experiments
Experimental: (§3) Radiolabeled precursors of DNA [^3H]dThd, RNA ([^3H]Urd), or protein ([^3H]leucine) were added to each treatment 30 minutes after the addition of each compound. Samples were taken 1, 2, 3 and 4 hours after the addition of radiolabeled precursors, and the incorporation of radioactivity into RNA, DNA, or protein were determined as described (Parker et al, Biochem. Pharmacol. 55: 1673-1681, 1998). Each number represents the average of two experiments.

CEM cells (wild-type) = experiment: Inhibition of CEM cell growth, wild-type; conditions: read-out: IC50 (nM) Wild-type; wild-type CEM cells; cell numbers by Coulter Counter; mean and standard deviation from 3 experiments
Experimental: (§6) CEM cells were incubated with various concentrations of each compound and the effect on. cell numbers was determined using a Coulter Counter. The IC50 was determined from a plot of the percent of control growth versus drug concentration. The data presented are the mean and standard deviation from 3 separate experiments.

[2] = system: protein synthesis in CEM cells; experiment: Effect on protein synthesis ([3H]leucine incorporation) in CEM cells; assay type: cell-based; conditions: 150 nM, average of two experiments
Experimental: as §3

[3] = Phosphorylation in cell-free CEM extracts, araC-resistant; assay type: biochemical
Experimental: (§4) The number in parentheses is the number of experiments performed. […] At various times after the initiation of the experiment, an aliquot of each reaction volume was removed and placed on DE-81 filters. The filters were washed with 1 mM ammonium formate and ethanol, and the amount of radioactivity on each filter was determined. […] This assay was verified by HPLC.

araC-resistant CEM cells = experiment: Inhibition of CEM cell growth, araC-resistant; conditions: read-out: IC50 (nM) araC-resistant; araC-resistant CEM cells; cell numbers by Coulter Counter; mean and standard deviation from 3 experiments
Experimental: as §6

[4] = system: RNA synthesis in CEM cells; experiment: Effect on RNA synthesis ([3H]Urd incorporation) in CEM cells; assay type: cell-based; conditions: 150 nM, average of two experiments
Experimental: as §3

SK-MEL 28 Melanoma = experiment: In vitro IC50, 72 hour exposure, SRB assay; assay type: cell-based; conditions: read-out: IC50 Molar Values
Experimental: as §1, §2

[5] = Phosphorylation in cell-free CEM extracts, wild-type; assay type: biochemical; conditions: wild-type CEM cell extract; 1 μm substrate
Experimental: as §4

CEM cells [6] = experiment: Complete metabolism of dCyd, T-dCyd, araC and T-araC in CEM cells; assay type: cell-based; conditions: 100 nM, incubation 1 hour
Experimental: The complete metabolism of each compound was determined: The medium was analyzed for the original compound, its deaminated form using reverse phase HPLC, and H20; the acid-soluble extract was analyzed by SAX HPLC for phosphorylated metabolites; and the incorporation of radioactivity into acid-precipitable material (DNA) was determined.

SC CAKI-1 Renal Tumor = experiment: Response of SC CAKI-1 Renal Tumor to Treatment; assay type: in vivo; conditions: Q 4H × 3 day 7-15
Experimental: (§5) The following in vivo tests were carried out to illustrate the effectiveness of the compounds of the present invention.

CEM cells [7] = experiment: Effect of F-dUrd on metabolism (deamination) in CEM cells; assay type: cell-based; conditions: 100 nM, incubation time 8 hours
Experimental: The complete metabolism of each compound was determined as described in the legend to Table 12, and the percent of deaminated metabolites for each compound was determined.

SC HCT-116 Colon Tumor = experiment: Response of SC HCT-116 Colon Tumor to Treatment; assay type: in vivo; conditions: Q 4H × 3 day 6-14
Experimental: as §5

## Nc1ccn([C@@H]2O[C@H](CO)[C@@H](O)[C@@H]2O)c(=O)n1 [araC, cytosine arabinoside]
DLD-1 Colon
  IC50: 5000 nM
PC-3 Prostate
  IC50: 5000 nM
ZR-75-1 Mammary
  IC50: 400 nM
LOX IMV1 Melanoma
  IC50: 1000 nM
NC1-H23 Lung
  IC50: 300 nM
SNB-7 (CNS)
  IC50: 200 nM
CAK1-1 Renal
  IC50: 600 nM
[1]
  DNA synthesis, Percent of control: 8% of control
CEM cells (wild-type)
  IC50: 6 ± 3 nM
[2]
  protein synthesis, Percent of control: 96% of control
[3]; araC-resistant CEM cell extract, 1 μm substrate
  Phosphorylation, araC-resistant CEM cells: 1.2 pmoles/mg protein/minute
[3]; phosphorylation in araC-resistant vs wild-type CEM extract
  Percent of wild-type: 1.3% of wild-type
araC-resistant CEM cells
  IC50: 800 ± 400 nM
[4]
  RNA synthesis, Percent of control: 96% of control
SK-MEL 28 Melanoma
  IC50: 2000 nM
[5]
  Phosphorylation, Wild-type: 94 pmoles/mg protein/minute
CEM cells [6]
  DNA (percent of total): 0.4% of total
  Deaminated Compound (percent of total): 0% of total
  H20 (percent of total): 0% of total
  Original Compound (percent of total): 87% of total
  nucleoside-TP (percent of total): 13% of total
SC CAKI-1 Renal Tumor; 13.3 Mg/Kg IP
  Days Delay (T − C): 11.0 days
  Days to 3 Doubling: 20.5 days
  Non-Specific Deaths/Total: 0/6
  Tumor Free Surv/Total: 0/6
  Tumor Regression Number of Complete: 0
  Tumor Regression Number of Partial: 0
SC CAKI-1 Renal Tumor; 20 Mg/Kg IP
  Days Delay (T − C): 6.2 days
  Days to 3 Doubling: 15.7 days
  Non-Specific Deaths/Total: 5/6
  Toxicity remark under Days Delay (T − C): (Toxic)
  Tumor Free Surv/Total: 0/6
  Tumor Regression Number of Complete: 0
  Tumor Regression Number of Partial: 0
SC CAKI-1 Renal Tumor; 30 Mg/Kg IP
  Days Delay (T − C): 16.2 days
  Days to 3 Doubling: 25.7 days
  Non-Specific Deaths/Total: 5/6
  Toxicity remark under Days Delay (T − C): (Toxic)
  Tumor Free Surv/Total: 0/6
  Tumor Regression Number of Complete: 0
  Tumor Regression Number of Partial: 0
CEM cells [7]; F-dUrd 0 μM
  Percent Deamination: 0%
CEM cells [7]; F-dUrd 10 μM
  Percent Deamination: 10%
SC HCT-116 Colon Tumor; 9 Mg/Kg IP
  Days Delay (T − C): 2.0 days
  Days to 2 Doubling: 10.9 days
  Non-Specific Deaths/Total: 0/6
  Tumor Free Surv/Total: 0/6
  Tumor Regression Number of Complete: 0
  Tumor Regression Number of Partial: 0
SC HCT-116 Colon Tumor; 13.3 Mg/Kg IP
  Days Delay (T − C): 3.3 days
  Days to 2 Doubling: 12.2 days
  Non-Specific Deaths/Total: 0/6
  Tumor Free Surv/Total: 0/6
  Tumor Regression Number of Complete: 0
  Tumor Regression Number of Partial: 0
